From patent publication US20150197497A1, “SELECTIVE INHIBITORS OF HISTONE DEACETYLASE ISOFORM 6 AND METHODS THEREOF” (DANA-FARBER CANCER INSTITUTE, INC., priority 2011, published 2015)

Key:
[1] = biological target: T1, HDAC6 (Homo sapiens, UniProt Q9UBN7); test: In vitro HDAC enzyme inhibition assay, HDAC6; assay type: biochemical; conditions: recombinant full-length HDAC6, substrate MAZ1600 9 μM
T1 construct: Recombinant, full-length HDAC protein (BPS Biosciences) was incubated with fluorophore conjugated substrate; purchased BPS Biosciences
T1 sequence (Q9UBN7 1-1215): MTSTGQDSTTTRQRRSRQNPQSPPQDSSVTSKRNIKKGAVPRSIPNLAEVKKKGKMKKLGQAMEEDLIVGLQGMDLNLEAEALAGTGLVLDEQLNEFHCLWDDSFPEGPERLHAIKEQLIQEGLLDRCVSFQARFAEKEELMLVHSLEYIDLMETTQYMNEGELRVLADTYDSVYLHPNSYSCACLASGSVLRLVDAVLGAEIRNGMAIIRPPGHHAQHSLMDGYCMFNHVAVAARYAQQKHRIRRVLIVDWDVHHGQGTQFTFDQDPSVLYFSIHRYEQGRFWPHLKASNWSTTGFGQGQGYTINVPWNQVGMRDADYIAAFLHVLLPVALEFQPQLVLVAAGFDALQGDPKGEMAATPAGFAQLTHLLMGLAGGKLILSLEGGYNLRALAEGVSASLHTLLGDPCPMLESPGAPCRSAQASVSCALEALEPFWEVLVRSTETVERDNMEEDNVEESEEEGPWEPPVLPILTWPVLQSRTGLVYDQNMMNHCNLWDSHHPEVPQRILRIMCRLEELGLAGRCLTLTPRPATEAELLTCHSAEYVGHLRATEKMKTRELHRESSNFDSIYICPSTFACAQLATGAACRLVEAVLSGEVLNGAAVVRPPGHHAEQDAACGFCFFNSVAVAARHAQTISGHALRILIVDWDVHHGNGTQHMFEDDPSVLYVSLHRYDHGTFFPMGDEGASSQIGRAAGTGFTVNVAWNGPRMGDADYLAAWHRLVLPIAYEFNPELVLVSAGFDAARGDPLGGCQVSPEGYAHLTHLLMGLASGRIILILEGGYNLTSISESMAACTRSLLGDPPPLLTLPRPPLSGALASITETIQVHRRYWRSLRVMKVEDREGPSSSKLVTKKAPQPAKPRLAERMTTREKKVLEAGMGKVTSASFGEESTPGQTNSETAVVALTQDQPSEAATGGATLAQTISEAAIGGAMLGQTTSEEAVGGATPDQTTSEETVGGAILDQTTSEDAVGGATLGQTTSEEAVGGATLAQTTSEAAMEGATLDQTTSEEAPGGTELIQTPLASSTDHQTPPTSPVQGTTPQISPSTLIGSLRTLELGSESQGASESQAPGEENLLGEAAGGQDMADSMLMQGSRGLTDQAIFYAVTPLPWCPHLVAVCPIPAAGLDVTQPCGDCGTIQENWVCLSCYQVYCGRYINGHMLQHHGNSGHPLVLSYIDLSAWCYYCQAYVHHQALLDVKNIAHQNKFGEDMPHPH
Description: In vitro Histone Deacetylase enzyme assays were performed using Class I (isoforms: HDAC1, HDAC2, HDAC3 and HDAC8), class IIa (isoforms: HDAC4, HDAC5, HDAC7 and HDAC9) and class IIb (isoform HDAC6).
HDAC activities were determined in vitro with an optimized homogenous assay performed in a 384-well plate. Recombinant, full-length HDAC protein (BPS Biosciences) was incubated with fluorophore conjugated substrate, MAZ1600 and MAZ1675, at Km=[S]. […] Reactions were performed in assay buffer (50 mM HEPES, 100 mM KCl, 0.001% Tween-20, 0.05% BSA, 200 μM tris(2-carboxyethyl)phosphine (TCEP), pH 7.4) and followed for fluorogenic release of 7-amino-4-methylcoumarin from substrate upon deacetylase and trypsin enzymatic activity. Fluorescence measurements were obtained every five minutes using a multilabel plate reader and plate-stacker (Envision; Perkin-Elmer). Each plate was analyzed by plate repeat, and the first derivative within the linear range was imported into analytical software (Spotfire DecisionSite and GraphPad Prism). Replicate experimental data from incubations with inhibitor were normalized to controls.

[2] = tested on: acetylated tubulin; test: High-content image analysis of induction of acetylated tubulin in A549 cells
Description: Cells were treated with each test HDACi compound with an automated pin transfer instrument (Janus, Perkin Elmer) and incubated for 8 hours. […] Fixation solution was aspirated and 90 μL of washing solution (0.1% Triton X-100 in PBS) was added prior to 10 minute incubation at 4° C. Washing solution was aspirated and cells were incubated at 4° C. for about 1 hour in blocking solution (0.1% Triton X-100+2% BSA in PBS). Washing solution was aspirated, and cells were incubated for about 1 hour at 4° C. in primary antibody for acetylated-tubulin (Sigma T7451) and acetylated-histone (Cell Signaling #9441L) at a 1:1000 dilution in blocking solution. Primary antibody solution was aspirated, and cells were washed three times in 90 μL of washing solution. […] Secondary antibody and nuclear staining solution was aspirated and cells were washed three times in 90 μL of washing solution. After the third wash, 50 μL of PBS was added to each well. Image acquisition was done on a high content imaging microscope (ImageXpress Micro, Molecular Devices), and image analysis (MetaXpress, Molecular Devices) was performed to obtain average acetylated-tubulin and acetylated-histone signal per cell based on treatment. Replicate experimental data from incubations with inhibitor were normalized to DMSO controls.

[3] = tested on: acetylated histones; test: High-content image analysis of induction of acetylated histones in A549 cells; conditions: for EC50: Homo sapiens, A549, 8 h, read-out: EC50 for half-maximal induction of acetylated histones (AcHistone)

`Cc1ccc2c(c1)nnn2Cc1ccc(C(=O)NO)cc1` [C2, N-hydroxy-4-((5-methyl-1H-benzo[d][1,2,3]triazol-1-yl)methyl)benzamide] was tested, and the IC50 [1] was 1470 nM, the EC50 ([2]; Homo sapiens, A549, 8 h, read-out: EC50 for half-maximal induction of acetylated tubulin (AcTubulin)) was 124 nM and the “AcHistone/AcTubulin in cell selectivity toward HDAC6” value ([2]; ratio of EC50 acetylated histone to EC50 acetylated tubulin, A549 cells) was 20.3. It also gave an EC50 [3] of 2520 nM.

In the case of `O=C(CCCCCCC(=O)Nc1ccccc1)NO` [SAHA, suberoylanilide hydroxamic acid, reference compound], the “levels of acetylated tubulin, dose response (in words)” value ([2]; A549 cells, FIG. 11) is reported as “dose-dependent increase”, the “levels of acetylated histone, dose response (in words)” value ([3]; A549 cells, FIG. 11) is reported as “dose-dependent increase” and the EC50 [3] is reported as 143 nM.
